Assays:
Type in all cases: cell-based
[1] = test system: parental and C20orf196 KO SUM149 tumouroids; assay: Tumouroid assay, parental vs C20orf196 KO SUM149; details: in C20orf196 KO cells when compared with olaparib
Protocol: Cells were seeded into a hydrogel containing 10% rat tail collagen (OcellO) in 384-well high content imaging microplates at varying densities to compensate for differential growth characteristics (Table 2).
24 hours after seeding, test compounds and olaparib (Selleckchem) were added in an eight-point dose range with a one in three serial dilution (maximum concentration 12 μM for all compounds, except 30 μM compound A for REV7 KO cell experiments). Dimethyl sulfoxide (DMSO) and 1 μM staurosporine (Med Chem Express) treatments were included as negative and positive controls, respectively. All treatments were carried out in quadruplicate.
After seven or fourteen days of treatment for 20orf196 KO and REV7 KO experiments respectively, cells were fixed with 5× Fix & Stain solution (OcellO) for 16 hours at 4° C. to stain both the nuclei using Hoechst 33258 and the actin cytoskeleton using Rhodamine-Phalloidin. Cells were washed four times with phosphate-buffered saline (PBS), and plates were imaged and analysed using OcellO's three-dimensional image analysis software (Ominer). For each well, two channels of 16-bit image stacks were collected using an automated microscope system: Molecular Devices ImageXpress Micro XLS, equipped with a 4× magnification/0.2NA PlanApo objective. For each image slice (n=47), pixel size was 0.324 μm and step size in z-direction was 50 μm.
Parental or C20orf196 KO SUM149 cells were seeded into a collagen-containing hydrogel in 384-well plates and incubated overnight. The resulting tumouroids were treated with a serial dilution of Polθ inhibitor or olaparib for seven days, fixed, and stained to visualise DNA and F-actin. Plates were imaged, and tumouroid size was measured using OcellO's three-dimensional image analysis software.
(§1) Parental or C20orf196 KO SUM149 cells were seeded into a collagen-containing hydrogel in 384-well plates and incubated overnight. The resulting tumouroids were treated with a serial dilution of Polθ inhibitor or olaparib for seven days, fixed, and stained to visualise DNA and F-actin. Plates were imaged, and the number of nuclei per tumouroid was counted using OcellO's three-dimensional image analysis software.
as §1, with “with” for “with a serial dilution of”, “inhibitor, olaparib” for “inhibitor”, “control compound (at the concentrations indicated)” for “olaparib”, “fraction” for “number”, “without an associated actin cytoskeleton” for “per tumouroid”, “calculated” for “counted”

[2] = test system: parental and SHLD2 KO MDA-MB-436 cells; assay: Colony formation assay, MDA-MB-436; details: SHLD2 KO vs parental MDA-MB-436 cells, colony solubilization protocol
Protocol: 1 mL of cells were seeded per well in a 24-well plate in triplicate and incubated overnight at 37° C. Cells were treated with a seven-point dose response curve with a one-in-three serial dilution of compound for the timepoints listed in Table 5. For MDA-MB-436 cells media was replenished every five days.
Cells were fixed with 70% ethanol for 20 minutes at room temperature with shaking. Cells were then stained with 0.04% Crystal Violet (Sigma Aldrich) for 20 minutes at room temperature with shaking. Cells were washed 6 times with water and air-dried overnight.
Plates were imaged using a Gelcount (Oxford Optronix), and colonies were counted using parameters optimized for each cell line. […] Colonies were solubilized using 10% acetic acid (VWR) for 30 minutes, absorbance at 595 nm was read using the Clariostar plate reader (BMG Labtech), and blank correction was applied. Relative Survival was calculated by normalization of compound treated wells to DMSO treated wells.
The effect of a DNA polymerase theta (Polθ) inhibitor (Compound A) and the PARP inhibitor olaparib on the survival of parental and SHLD2 deleted (SHLD2 KO) MDA-MB-436 cells was investigated by colony formation assay. Briefly, each population was seeded at low density, incubated with different concentrations of the compound and the relative survival normalized to untreated cells was measured with the colony solubilization protocol.

[3] = test system: Shieldin-defective, PARPi-resistant SUM149 cells; assay: Re-sensitisation to olaparib
Protocol: For measurement of re-sensitisation to Olaparib, exponentially growing cells were exposed to Compound A for 48 hours. After, cells were seeded in 96-well plates at a concentration of 1000-2000 cells per well. 24 hours post-seeding, Olaparib treatment was initiated and cells were continuously exposed to the drug with media and drug replenished every 72 hours. After 10 days, cell viability was estimated using Cell-Titre Glo (Promega). SFs were calculated and drug sensitivity curves plotted as previously described (Farmer et al Nature (2005) 434, 917-921).
Briefly, parental SUM149 cells or derivatives with either BRCA1 restored or with genetic deletion of either C20orf196 or 53BP1 were treated with Compound A in a tissue culture flask for 48 hours. The cells were then washed before seeding at low density in 96 well plates. 24 hours post seeding, cells were incubated with either olaparib or DMSO for a further 10 days. The relative survival normalised to untreated cells was measured using Cell-Titre Glo.

Cc1cccc(N(C)C(=O)[C@@H]2[C@H](O)CCN2c2nc(C)cc(C(F)(F)F)c2C#N)c1 [Compound A, (2S,3R)-1-(3-cyano-6-methyl-4-(trifluoromethyl)pyridin-2-yl)-3-hydroxy-N-methyl-N-(m-tolyl)pyrrolidine-2-carboxamide]
cell death [1]: significantly more cell death | reduction in the number of nuclei per tumoroid [1]: greater reduction in the number of nuclei per tumoroid | reduction in tumoroid size [1]: greater reduction in tumoroid size | sensitivity by relative survival [2]: significantly more sensitive | sensitivity to olaparib after pre-treatment ([3]; Compound A 10 μM 48 hours then olaparib 1 μM 10 days, SUM149 C20orf196 and SUM149 53BP1 cells): induced sensitivity | effect on survival of 48 hours treatment alone ([3]; Compound A 10 μM for 48 hours then DMSO, SUM149 cells and derivatives): no effect on survival
